Data reported in ChEMBL document CHEMBL4879554, “Data for DCP probe GNE-2256” (2021).
Activity calls are given as the source filed them. The calls are words filed in the database; no cut-off is given here.

Key:
[1] = target: Activin receptor type-1 (Homo sapiens) (UniProt Q04771); assay: ALK2 Kinase panel; details: Compound concentration 1.0 uM
[2] = target: Mitogen-activated protein kinase 14 (Homo sapiens) (UniProt Q16539); assay: p38_alpha(direct) Kinase panel; details: Compound concentration 1.0 uM
[3] = target: Serine/threonine-protein kinase 33 (Homo sapiens) (UniProt Q9BYT3); assay: STK33 Kinase panel; details: Compound concentration 1.0 uM
[4] = target: Mitogen-activated protein kinase 8 (Homo sapiens) (UniProt P45983); assay: JNK1_alpha1 Kinase panel; details: Compound concentration 1.0 uM
[5] = target: Vascular endothelial growth factor receptor 1 (Homo sapiens) (UniProt P17948); assay: Flt1 Kinase panel; details: Compound concentration 1.0 uM
[6] = target: Insulin receptor-related protein (Homo sapiens) (UniProt P14616); assay: IRR Kinase panel; details: Compound concentration 1.0 uM
[7] = target: Leucine-rich repeat serine/threonine-protein kinase 2 (Homo sapiens) (UniProt Q5S007); assay: LRRK2 Kinase panel; details: Compound concentration 1.0 uM
[8] = target: Tyrosine-protein kinase JAK3 (Homo sapiens) (UniProt P52333); assay: JAK3 Kinase panel; details: Compound concentration 1.0 uM
[9] = target: Alpha-1D adrenergic receptor (Homo sapiens) (UniProt P25100); details: Compound concentration 10.0 uM
[10] = target: DNA-dependent protein kinase catalytic subunit (Homo sapiens) (UniProt P78527); assay: DNA_PK Kinase panel; details: Compound concentration 1.0 uM
[11] = target: Histamine H4 receptor (Homo sapiens) (UniProt Q9H3N8); details: Compound concentration 10.0 uM
[12] = target: Serine/threonine-protein kinase PAK 1 (Homo sapiens) (UniProt Q13153); assay: PAK1 Kinase panel; details: Compound concentration 1.0 uM
[13] = target: SRSF protein kinase 1 (Homo sapiens) (UniProt Q96SB4); assay: SRPK1 Kinase panel; details: Compound concentration 1.0 uM
Homo sapiens [14] = species: Homo sapiens; assay: (§1) TAK1-TAB1 Kinase panel; details: Compound concentration 1.0 uM
[15] = as §1; set-up: species or system Homo sapiens
[16] = target: MAP kinase-interacting serine/threonine-protein kinase 2 (Homo sapiens) (UniProt Q9HBH9); assay: MKNK2 Kinase panel; details: Compound concentration 1.0 uM
[17] = target: Mitogen-activated protein kinase kinase kinase 5 (Homo sapiens) (UniProt Q99683); assay: ASK1 Kinase panel; details: Compound concentration 1.0 uM
[18] = target: Ribosomal protein S6 kinase alpha-3 (Homo sapiens) (UniProt P51812); assay: RSK2 Kinase panel; details: Compound concentration 1.0 uM
[19] = target: 5-hydroxytryptamine receptor 1B (Homo sapiens) (UniProt P28222); details: Compound concentration 10.0 uM
[20] = target: CDK9/cyclin T1 (Homo sapiens) (UniProt O60563+P50750); assay: CDK9/cyclinT1 Kinase panel; assay type: protein-complex assay; details: Compound concentration 1.0 uM
[21] = target: MAP kinase-activated protein kinase 2 (Homo sapiens) (UniProt P49137); assay: MAPKAPK2 Kinase panel; details: Compound concentration 1.0 uM
[22] = target: Serine/threonine-protein kinase PAK 4 (Homo sapiens) (UniProt O96013); assay: PAK4 Kinase panel; details: Compound concentration 1.0 uM
[23] = target: G protein-coupled receptor kinase 3 (Homo sapiens) (UniProt P35626); assay: GRK3 Kinase panel; details: Compound concentration 1.0 uM
[24] = target: Serine/threonine-protein kinase SIK2 (Homo sapiens) (UniProt Q9H0K1); assay: SIK2 Kinase panel; details: Compound concentration 1.0 uM
[25] = target: Testis-specific serine/threonine-protein kinase 1 (Homo sapiens) (UniProt Q9BXA7); assay: TSSK1 Kinase panel; details: Compound concentration 1.0 uM
[26] = target: Alpha-2B adrenergic receptor (Homo sapiens) (UniProt P18089); details: Compound concentration 10.0 uM
[27] = target: Interleukin-1 receptor-associated kinase 4 (Homo sapiens, UniProt Q9NWZ3); assay: NanoBRET assay (IRAK4, SGC Frankfurt)
[28] = target: Serine/threonine-protein kinase Nek6 (Homo sapiens) (UniProt Q9HC98); assay: NEK6 Kinase panel; details: Compound concentration 1.0 uM
[29] = target: G protein-coupled receptor kinase 5 (Homo sapiens) (UniProt P34947); assay: GRK5 Kinase panel; details: Compound concentration 1.0 uM
Rattus norvegicus = species: Rattus norvegicus; details: Compound concentration 10.0 uM
[30] = target: Serine/threonine-protein kinase 26 (Homo sapiens) (UniProt Q9P289); assay: MST4 Kinase panel; details: Compound concentration 1.0 uM
Homo sapiens [31] = species: Homo sapiens; assay: (§2) TAO1 Kinase panel; details: Compound concentration 1.0 uM
[32] = target: Serine/threonine-protein kinase TAO1 (Homo sapiens) (UniProt Q7L7X3); assay: as §2; details: Compound concentration 1.0 uM
[33] = target: Tyrosine-protein kinase Lyn (Homo sapiens) (UniProt P07948); assay: Lyn Kinase panel; details: Compound concentration 1.0 uM
[34] = target: Phosphorylase b kinase gamma catalytic chain, skeletal muscle/heart isoform (Homo sapiens) (UniProt Q16816); assay: PhK_gamma1 Kinase panel; details: Compound concentration 1.0 uM
[35] = target: NUAK family SNF1-like kinase 1 (Homo sapiens) (UniProt O60285); assay: ARK5 Kinase panel; details: Compound concentration 1.0 uM
[36] = target: Serine/threonine-protein kinase D1 (Homo sapiens) (UniProt Q15139); assay: PKD1 Kinase panel; details: Compound concentration 1.0 uM
[37] = target: CDK8/Cyclin C (Homo sapiens) (UniProt P49336+P24863); assay: CDK8/cyclinC Kinase panel; assay type: protein-complex assay; details: Compound concentration 1.0 uM
[38] = target: SRSF protein kinase 3 (Homo sapiens) (UniProt Q9UPE1); assay: MSSK1 Kinase panel; details: Compound concentration 1.0 uM
[39] = target: Casein kinase I isoform delta (Homo sapiens) (UniProt P48730); assay: CK1_delta Kinase panel; details: Compound concentration 1.0 uM
[40] = target: Proto-oncogene tyrosine-protein kinase Src (Homo sapiens) (UniProt P12931); assay: Src Kinase panel; details: Compound concentration 1.0 uM
[41] = target: Mitogen-activated protein kinase 13 (Homo sapiens) (UniProt O15264); assay: p38_delta Kinase panel; details: Compound concentration 1.0 uM
[42] = target: Dual specificity mitogen-activated protein kinase kinase 1 (Homo sapiens) (UniProt Q02750); assay: MEK1 Kinase panel; details: Compound concentration 1.0 uM
[43] = target: MAP kinase-interacting serine/threonine-protein kinase 1 (Homo sapiens) (UniProt Q9BUB5); assay: MKNK1 Kinase panel; details: Compound concentration 1.0 uM
[44] = target: Mitogen-activated protein kinase 9 (Homo sapiens) (UniProt P45984); assay: JNK2 Kinase panel; details: Compound concentration 1.0 uM
[45] = target: 5-hydroxytryptamine receptor 2B (Homo sapiens, UniProt P41595); assay: GPCRScan assay: inhibition of 5-HT2B; set-up: radioligand conc. used [nm] 1.0 – 2.0, parental cells stable HEK
[46] = target: Tyrosine-protein kinase SYK (Homo sapiens) (UniProt P43405); assay: Syk Kinase panel; details: Compound concentration 1.0 uM
[47] = target: Mitogen-activated protein kinase 12 (Homo sapiens) (UniProt P53778); assay: p38_gamma Kinase panel; details: Compound concentration 1.0 uM
[48] = target: Beta-2 adrenergic receptor (Homo sapiens) (UniProt P07550); details: Compound concentration 10.0 uM
[49] = target: Serine/threonine-protein kinase PLK3 (Homo sapiens) (UniProt Q9H4B4); assay: PLK3 Kinase panel; details: Compound concentration 1.0 uM
[50] = target: 5-hydroxytryptamine receptor 6 (Homo sapiens) (UniProt P50406); details: Compound concentration 10.0 uM
[51] = target: Calcium/calmodulin-dependent protein kinase kinase 1 (Homo sapiens) (UniProt Q8N5S9); assay: CAMKK1 Kinase panel; details: Compound concentration 1.0 uM
[52] = target: Proto-oncogene tyrosine-protein kinase receptor Ret (Homo sapiens) (UniProt P07949); assay: Ret Kinase panel; details: Compound concentration 1.0 uM
[53] = target: Calcium/calmodulin-dependent protein kinase type II subunit alpha (Homo sapiens) (UniProt Q9UQM7); assay: CamKII_alpha Kinase panel; details: Compound concentration 1.0 uM
[54] = target: Insulin-like growth factor 1 receptor (Homo sapiens) (UniProt P08069); assay: IGF1R Kinase panel; details: Compound concentration 1.0 uM

Chain of Interleukin-1 receptor-associated kinase 4 (Q9NWZ3 whole entry): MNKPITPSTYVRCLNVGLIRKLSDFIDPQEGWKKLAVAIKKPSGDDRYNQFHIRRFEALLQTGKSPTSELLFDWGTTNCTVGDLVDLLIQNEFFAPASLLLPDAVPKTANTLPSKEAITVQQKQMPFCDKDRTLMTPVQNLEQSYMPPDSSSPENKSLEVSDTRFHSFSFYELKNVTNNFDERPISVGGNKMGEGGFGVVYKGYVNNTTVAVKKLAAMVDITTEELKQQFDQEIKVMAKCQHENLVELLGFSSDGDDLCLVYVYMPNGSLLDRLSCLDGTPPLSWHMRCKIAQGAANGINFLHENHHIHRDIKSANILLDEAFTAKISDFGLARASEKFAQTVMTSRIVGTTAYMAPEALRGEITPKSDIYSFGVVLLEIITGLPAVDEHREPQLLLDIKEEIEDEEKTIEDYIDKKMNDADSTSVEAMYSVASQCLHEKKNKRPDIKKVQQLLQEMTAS
Chain of Histamine H4 receptor (Homo sapiens) (Q9H3N8 whole entry): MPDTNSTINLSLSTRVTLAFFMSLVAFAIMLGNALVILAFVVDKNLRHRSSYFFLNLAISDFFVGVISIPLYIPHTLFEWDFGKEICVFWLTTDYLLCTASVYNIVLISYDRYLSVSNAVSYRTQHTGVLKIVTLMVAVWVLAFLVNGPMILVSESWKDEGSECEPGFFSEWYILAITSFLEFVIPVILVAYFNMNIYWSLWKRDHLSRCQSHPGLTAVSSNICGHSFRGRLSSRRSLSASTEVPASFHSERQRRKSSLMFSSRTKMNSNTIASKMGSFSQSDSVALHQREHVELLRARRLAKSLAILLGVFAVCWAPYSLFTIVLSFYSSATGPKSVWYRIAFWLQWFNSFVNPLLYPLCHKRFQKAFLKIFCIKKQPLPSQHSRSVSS
Chain of Tyrosine-protein kinase Lyn (Homo sapiens) (P07948 2-512 limits assumed): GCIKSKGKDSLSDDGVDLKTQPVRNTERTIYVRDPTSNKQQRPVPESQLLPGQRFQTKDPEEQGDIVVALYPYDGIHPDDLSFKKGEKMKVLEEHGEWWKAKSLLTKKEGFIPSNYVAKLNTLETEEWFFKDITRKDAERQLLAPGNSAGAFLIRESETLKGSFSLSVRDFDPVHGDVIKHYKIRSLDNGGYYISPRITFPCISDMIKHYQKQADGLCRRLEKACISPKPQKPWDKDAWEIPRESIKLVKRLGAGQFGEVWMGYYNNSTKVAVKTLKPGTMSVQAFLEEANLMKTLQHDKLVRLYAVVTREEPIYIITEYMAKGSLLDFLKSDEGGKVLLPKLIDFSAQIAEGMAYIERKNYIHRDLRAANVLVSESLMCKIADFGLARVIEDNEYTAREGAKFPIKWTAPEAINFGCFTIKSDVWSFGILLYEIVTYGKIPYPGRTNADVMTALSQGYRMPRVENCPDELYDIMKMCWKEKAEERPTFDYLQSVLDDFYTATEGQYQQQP
Chain of Serine/threonine-protein kinase 26 (Homo sapiens) (Q9P289 2-416 limits assumed): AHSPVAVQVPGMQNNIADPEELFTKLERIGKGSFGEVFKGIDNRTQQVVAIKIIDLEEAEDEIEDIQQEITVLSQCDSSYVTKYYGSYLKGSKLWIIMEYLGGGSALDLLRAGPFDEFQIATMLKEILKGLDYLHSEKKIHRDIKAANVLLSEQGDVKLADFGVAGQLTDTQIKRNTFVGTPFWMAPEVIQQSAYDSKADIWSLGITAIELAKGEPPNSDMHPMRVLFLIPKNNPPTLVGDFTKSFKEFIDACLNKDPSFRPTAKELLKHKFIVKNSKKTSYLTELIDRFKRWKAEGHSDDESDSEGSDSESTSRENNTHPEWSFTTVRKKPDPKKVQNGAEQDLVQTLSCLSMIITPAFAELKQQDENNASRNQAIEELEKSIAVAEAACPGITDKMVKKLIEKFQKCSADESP
Chain of 5-hydroxytryptamine receptor 1B (Homo sapiens) (P28222 whole entry): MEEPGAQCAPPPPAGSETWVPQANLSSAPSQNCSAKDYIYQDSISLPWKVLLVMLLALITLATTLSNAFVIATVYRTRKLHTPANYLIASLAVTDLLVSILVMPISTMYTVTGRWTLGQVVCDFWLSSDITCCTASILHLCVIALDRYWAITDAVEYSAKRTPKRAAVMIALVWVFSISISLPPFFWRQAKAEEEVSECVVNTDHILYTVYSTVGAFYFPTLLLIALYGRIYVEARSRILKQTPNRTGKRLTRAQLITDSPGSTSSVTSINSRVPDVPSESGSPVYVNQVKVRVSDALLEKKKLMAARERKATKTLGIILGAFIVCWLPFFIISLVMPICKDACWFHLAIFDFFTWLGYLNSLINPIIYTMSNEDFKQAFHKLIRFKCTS
Chain of Tyrosine-protein kinase JAK3 (Homo sapiens) (P52333 whole entry): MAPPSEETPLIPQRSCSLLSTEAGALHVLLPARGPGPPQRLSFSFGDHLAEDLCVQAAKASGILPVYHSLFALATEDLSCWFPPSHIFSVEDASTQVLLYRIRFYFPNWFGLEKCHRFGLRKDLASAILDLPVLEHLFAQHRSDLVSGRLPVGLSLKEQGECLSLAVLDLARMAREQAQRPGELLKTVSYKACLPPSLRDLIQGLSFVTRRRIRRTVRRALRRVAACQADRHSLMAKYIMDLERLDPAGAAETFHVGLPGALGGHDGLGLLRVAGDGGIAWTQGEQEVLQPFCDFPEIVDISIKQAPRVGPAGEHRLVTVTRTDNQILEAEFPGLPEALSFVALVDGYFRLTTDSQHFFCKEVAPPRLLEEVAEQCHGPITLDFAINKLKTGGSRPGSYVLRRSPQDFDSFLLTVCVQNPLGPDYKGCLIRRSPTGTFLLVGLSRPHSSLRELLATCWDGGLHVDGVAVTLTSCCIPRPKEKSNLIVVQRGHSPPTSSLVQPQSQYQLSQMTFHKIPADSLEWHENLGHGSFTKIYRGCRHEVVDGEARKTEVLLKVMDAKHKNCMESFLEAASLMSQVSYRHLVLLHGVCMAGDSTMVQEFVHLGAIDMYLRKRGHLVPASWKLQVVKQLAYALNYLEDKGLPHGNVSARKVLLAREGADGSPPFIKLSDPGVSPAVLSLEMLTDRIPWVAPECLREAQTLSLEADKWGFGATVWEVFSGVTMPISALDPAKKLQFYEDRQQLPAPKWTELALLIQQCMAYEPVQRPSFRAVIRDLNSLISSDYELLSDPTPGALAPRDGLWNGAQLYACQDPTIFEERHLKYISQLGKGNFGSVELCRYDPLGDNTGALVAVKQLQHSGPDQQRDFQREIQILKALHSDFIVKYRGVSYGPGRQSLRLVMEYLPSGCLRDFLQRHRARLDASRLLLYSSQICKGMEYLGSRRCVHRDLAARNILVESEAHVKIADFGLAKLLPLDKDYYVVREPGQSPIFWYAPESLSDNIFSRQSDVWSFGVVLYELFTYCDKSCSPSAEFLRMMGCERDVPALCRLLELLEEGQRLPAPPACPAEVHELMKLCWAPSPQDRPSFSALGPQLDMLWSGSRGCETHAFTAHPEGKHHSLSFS
Chain of Alpha-2B adrenergic receptor (Homo sapiens) (P18089 whole entry): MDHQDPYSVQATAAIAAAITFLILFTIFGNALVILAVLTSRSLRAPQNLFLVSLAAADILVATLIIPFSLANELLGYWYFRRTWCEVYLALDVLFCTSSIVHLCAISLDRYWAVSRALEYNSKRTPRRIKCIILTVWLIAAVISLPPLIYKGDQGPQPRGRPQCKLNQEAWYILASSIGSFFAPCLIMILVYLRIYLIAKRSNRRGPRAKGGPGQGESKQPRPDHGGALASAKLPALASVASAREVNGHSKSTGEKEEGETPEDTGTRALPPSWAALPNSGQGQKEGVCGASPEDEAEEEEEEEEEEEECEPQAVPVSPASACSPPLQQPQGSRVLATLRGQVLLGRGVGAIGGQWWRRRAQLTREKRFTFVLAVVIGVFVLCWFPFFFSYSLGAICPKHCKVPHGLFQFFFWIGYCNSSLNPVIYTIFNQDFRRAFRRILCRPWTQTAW
Chain of SRSF protein kinase 1 (Homo sapiens) (Q96SB4 whole entry): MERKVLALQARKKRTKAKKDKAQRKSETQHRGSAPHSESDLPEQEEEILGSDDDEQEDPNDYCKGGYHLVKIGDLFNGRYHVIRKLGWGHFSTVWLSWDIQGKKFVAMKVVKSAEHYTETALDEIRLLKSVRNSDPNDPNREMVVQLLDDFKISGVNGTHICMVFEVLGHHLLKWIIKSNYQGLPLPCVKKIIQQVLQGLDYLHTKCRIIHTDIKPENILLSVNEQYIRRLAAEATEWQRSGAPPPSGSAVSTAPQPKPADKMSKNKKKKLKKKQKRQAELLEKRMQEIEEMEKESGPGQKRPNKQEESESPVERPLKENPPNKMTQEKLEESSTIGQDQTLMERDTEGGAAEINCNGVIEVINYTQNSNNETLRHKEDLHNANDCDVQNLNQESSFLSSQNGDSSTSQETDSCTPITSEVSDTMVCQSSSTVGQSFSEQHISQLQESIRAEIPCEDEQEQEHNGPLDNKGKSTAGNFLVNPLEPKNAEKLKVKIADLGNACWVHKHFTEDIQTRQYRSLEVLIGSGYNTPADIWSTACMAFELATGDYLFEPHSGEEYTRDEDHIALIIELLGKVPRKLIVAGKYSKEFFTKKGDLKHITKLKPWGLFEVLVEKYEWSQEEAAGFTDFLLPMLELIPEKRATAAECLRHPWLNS
Chain of Mitogen-activated protein kinase 13 (Homo sapiens) (O15264 whole entry): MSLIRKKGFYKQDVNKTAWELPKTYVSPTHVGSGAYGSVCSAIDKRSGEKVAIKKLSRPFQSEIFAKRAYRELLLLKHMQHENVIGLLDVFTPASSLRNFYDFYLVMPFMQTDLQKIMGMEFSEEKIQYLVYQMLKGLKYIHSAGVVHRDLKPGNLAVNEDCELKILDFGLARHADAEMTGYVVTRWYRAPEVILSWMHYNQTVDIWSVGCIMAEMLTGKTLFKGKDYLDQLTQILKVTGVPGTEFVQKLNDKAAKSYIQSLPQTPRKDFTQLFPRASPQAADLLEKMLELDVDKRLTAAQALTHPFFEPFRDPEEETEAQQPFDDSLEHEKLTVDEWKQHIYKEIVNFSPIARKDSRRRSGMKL

Compound: CC(C)(O)[C@H](F)CN1Cc2cc(NC(=O)c3cnn4cccnc34)c(N3CCOCC3)cc2C1=O
- inhibition [1]: 8%
- inhibition [2]: 4%
- inhibition [3]: 3.5%
- inhibition [4]: -1.5%
- inhibition [5]: -1%
- inhibition [6]: 18%
- inhibition [7]: 91.4%
- inhibition [8]: 28%
- inhibition [9]: 6.71%
- inhibition [10]: 9%
- inhibition [11]: 19.5%
- inhibition [12]: 9%
- inhibition [13]: 1.5%
- inhibition (Homo sapiens [14]): 74.5%
- IC50 [15]: 966 nM
- inhibition [16]: 6.5%
- inhibition [17]: 3.5%
- inhibition [18]: 15%
- inhibition [19]: 33%
- inhibition [20]: 2.5%
- inhibition [21]: 9.5%
- inhibition [22]: 5%
- inhibition [23]: -1%
- inhibition [24]: 12%
- inhibition [25]: 5%
- inhibition [26]: -0.98%
- EC50 [27]: 3 nM (active)
- IC50 [27]: 3.3 nM (active)
- inhibition [28]: 7%
- inhibition [29]: -2%
- inhibition (Rattus norvegicus): -2.15%
- inhibition [30]: 2%
- inhibition (Homo sapiens [31]): 2%
- inhibition [32]: 2%
- inhibition [33]: 55.3%
- inhibition [34]: 18.5%
- inhibition [35]: 23.5%
- inhibition [36]: 7.5%
- inhibition [37]: 13.5%
- inhibition [38]: 2.5%
- inhibition [39]: 1.5%
- inhibition [40]: 23.8%
- inhibition [41]: 5.5%
- inhibition [42]: 20.5%
- inhibition [43]: -6%
- inhibition [44]: 2.5%
- Ki [45]: 509 nM
- inhibition [46]: 9%
- inhibition [47]: 0.5%
- inhibition [48]: 3.53%
- inhibition [49]: -3%
- inhibition [50]: 7.46%
- inhibition [51]: 3.5%
- inhibition [52]: 31.5%
- inhibition [53]: 2.5%
- inhibition [54]: 11.5%
